target: Factor D (Homo sapiens (Human), UniProt P00746); experiment: biochemical; assay type: biochemical; conditions: read-out: IC50
Sequence (P00746 26-253): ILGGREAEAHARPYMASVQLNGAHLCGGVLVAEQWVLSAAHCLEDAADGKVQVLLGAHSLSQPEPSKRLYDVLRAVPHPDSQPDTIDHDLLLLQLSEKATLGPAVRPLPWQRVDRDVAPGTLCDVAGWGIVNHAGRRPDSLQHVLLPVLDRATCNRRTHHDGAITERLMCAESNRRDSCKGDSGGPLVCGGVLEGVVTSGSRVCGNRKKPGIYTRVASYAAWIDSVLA

First: CC(=O)c1cn(CC(=O)N2[C@@H]3C[C@@H]3C[C@H]2C(=O)Nc2cccc(OC(F)(F)F)c2F)c2ncccc12 [Example 562, (1R,3S,5R)-2-[2-(3-Acetyl-pyrrolo[2,3-b]pyridin-1-yl)-acetyl]-2-aza-bicyclo[3.1.0]hexane-3-carboxylic acid (2-fluoro-3-trifluoromethoxy-phenyl)-amide]
Second: COC[C@@H](NC(=O)[C@@H]1C[C@H]2C[C@H]2N1C(=O)Cn1cc(C(C)=O)c2ccccc21)c1cccc(Cl)c1F [Example 568, (1R,3S,5R)-2-[2-(3-Acetyl-indol-1-yl)-acetyl]-2-aza-bicyclo[3.1.0]hexane-3-carboxylic acid [(S)-1-(3-chloro-2-fluoro-phenyl)-2-methoxy-ethyl]-amide]
The IC50 of the first is 6.6-fold higher: 804 nM for the first, 121 nM for the second.

First: O=C(CO)c1cn(CC(=O)N2C[C@H](F)C[C@H]2C(=O)NCc2cccc(Cl)c2F)c2ccccc12 [Example 563, (2S,4R)-4-Fluoro-1-{2-[3-(2-hydroxy-acetyl)-indol-1-yl]-acetyl}-pyrrolidine-2-carboxylic acid 3-chloro-2-fluoro-benzylamide]
Second: O=C(CO)c1cn(CC(=O)N2C[C@H](F)C[C@H]2C(=O)NCc2cccc(Br)c2F)c2ccccc12 [Example 564, (2S,4R)-4-Fluoro-1-{2-[3-(2-hydroxy-acetyl)-indol-1-yl]-acetyl}-pyrrolidine-2-carboxylic acid 3-bromo-2-fluoro-benzylamide]
The IC50 of the first is 3.2-fold higher: 42 nM for the first, 13 nM for the second. The second is the more potent here.

First: COCC(=O)c1cn(CC(=O)N2C[C@H](F)C[C@H]2C(=O)NCc2cccc(Cl)c2F)c2ccccc12 [Example 565, (2S,4R)-4-Fluoro-1-{2-[3-(2-methoxy-acetyl)-indol-1-yl]-acetyl}-pyrrolidine-2-carboxylic acid 3-chloro-2-fluoro-benzylamide]
Second: COc1ccc2c(c1)c(C(C)=O)cn2CC(=O)N1C[C@H](F)C[C@H]1C(=O)NCc1cccc(Cl)c1F [Example 588, (2S,4R)-1-[2-(3-Acetyl-5-methoxy-indol-1-yl)-acetyl]-4-fluoro-pyrrolidine-2-carboxylic acid 3-chloro-2-fluoro-benzylamide]
The IC50 of the first is 12-fold higher: 369 nM for the first, 31 nM for the second.

NC(=O)c1cn(CC(=O)N2C[C@@](F)(CO)C[C@H]2C(=O)NCc2cccc(Cl)c2F)c2ccccc12 [Example 566, 1-{2-[(2S,4R)-2-(3-Chloro-2-fluoro-benzylcarbamoyl)-4-fluoro-4-hydroxymethyl-pyrrolidin-1-yl]-2-oxo-ethyl}-1H-indole-3-carboxylic acid amide] and NC(=O)c1cn(CC(=O)N2CCS[C@H]2C(=O)NCc2cccc(Cl)c2F)c2ccccc12 [Example 567, 1-{2-[(S)-2-(3-Chloro-2-fluoro-benzylcarbamoyl)-thiazolidin-3-yl]-2-oxo-ethyl}-1H-indole-3-carboxylic acid amide] are within 1.5-fold of each other in IC50: 436 nM for the first, 293 nM for the second.

First: CCO[C@H]1[C@@H](C(=O)NCc2cccc(Cl)c2F)N(C(=O)Cn2cc(C(C)=O)c3ccccc32)C[C@@H]1F [Example 569, (2S,3S,4S)-1-[2-(3-Acetyl-indol-1-yl)-acetyl]-4-fluoro-3-ethoxy-pyrrolidine-2-carboxylic acid 3-chloro-2-fluoro-benzylamide]
Second: CC(=O)c1cn(CC(=O)N2C[C@H](F)[C@@H](N)[C@H]2C(=O)NCc2cccc(Cl)c2F)c2ccccc12 [Example 575, (2S,3S,4S)-1-[2-(3-Acetyl-indol-1-yl)-acetyl]-3-amino-4-fluoro-pyrrolidine-2-carboxylic acid 3-chloro-2-fluoro-benzylamide]
The IC50 of the first is 65-fold lower: 13 nM for the first, 843 nM for the second. The first is the more potent here.

Compared with CO[C@H]1[C@@H](C(=O)N[C@H](C)c2cccc(Cl)c2F)N(C(=O)Cn2cc(C(C)=O)c3ccccc32)C[C@@H]1F [Example 570, (2S,3S,4S)-1-[2-(3-Acetyl-indol-1-yl)-acetyl]-4-fluoro-3-methoxy-pyrrolidine-2-carboxylic acid [(R)-1-(3-chloro-2-fluoro-phenyl)-ethyl]-amide], CO[C@H]1[C@@H](C(=O)N[C@@H](C)c2cccc(Cl)c2F)N(C(=O)Cn2cc(C(C)=O)c3ccccc32)C[C@@H]1F [Example 571, (2S,3S,4S)-1-[2-(3-Acetyl-indol-1-yl)-acetyl]-4-fluoro-3-methoxy-pyrrolidine-2-carboxylic acid [(S)-1-(3-chloro-2-fluoro-phenyl)-ethyl]-amide] is 3.7-fold higher in IC50: 27 nM for the first, 99 nM for the second.

First: CO[C@H]1[C@@H](C(=O)NC2(c3cccc(Cl)c3)CC2)N(C(=O)Cn2cc(C(C)=O)c3ccccc32)C[C@@H]1F [Example 572, (2S,3S,4S)-1-[2-(3-Acetyl-indol-1-yl)-acetyl]-4-fluoro-3-methoxy-pyrrolidine-2-carboxylic acid [1-(3-chloro-phenyl)-cyclopropyl]-amide]
Second: CO[C@H]1[C@@H](C(=O)NC2(c3ccc(Cl)cc3)CC2)N(C(=O)Cn2cc(C(C)=O)c3ccccc32)C[C@@H]1F [Example 573, (2S,3S,4S)-1-[2-(3-Acetyl-indol-1-yl)-acetyl]-4-fluoro-3-methoxy-pyrrolidine-2-carboxylic acid [1-(4-chloro-phenyl)-cyclopropyl]-amide]
The IC50 of the first is 3-fold lower: 284 nM for the first, 865 nM for the second. The first is the more potent here.

First: NC(=O)c1cn(CC(=O)N2C[C@H](F)[C@@H](N)[C@H]2C(=O)NCc2cccc(Cl)c2F)c2ccccc12 [Example 574, 1-{2-[(2S,3S,4S)-3-Amino-2-(3-chloro-2-fluoro-benzylcarbamoyl)-4-fluoro-pyrrolidin-1-yl]-2-oxo-ethyl}-1H-indole-3-carboxylic acid amide]
Second: CC(=O)c1cn(CC(=O)N2C[C@@H](N)[C@H](F)[C@H]2C(=O)NCc2cccc(Cl)c2F)c2ccccc12 [Example 576, (2R,3S,4R)-1-[2-(3-Acetyl-indol-1-yl)-acetyl]-4-amino-3-fluoro-pyrrolidine-2-carboxylic acid 3-chloro-2-fluoro-benzylamide]
The IC50 of the first is 1.8-fold lower: 217 nM for the first, 400 nM for the second. The first is the more potent here.

Compared with NC(=O)c1cn(CC(=O)N2C[C@H](F)C[C@H]2C(=O)NCc2cccc(Cl)c2F)c2ccc(O)cc12 [Example 577, 1-{2-[(2S,4R)-2-(3-Chloro-2-fluoro-benzylcarbamoyl)-4-fluoro-pyrrolidin-1-yl]-2-oxo-ethyl}-5-hydroxy-1H-indole-3-carboxylic acid amide], CC(=O)c1cn(CC(=O)N2C[C@H](F)C[C@H]2C(=O)NCc2cccc(Cl)c2F)c2ccc(O)cc12 [Example 579, (2S,4R)-1-[2-(3-Acetyl-5-hydroxy-indol-1-yl)-acetyl]-4-fluoro-pyrrolidine-2-carboxylic acid 3-chloro-2-fluoro-benzylamide] is 1.8-fold lower in IC50: 71 nM for the first, 39 nM for the second.

Going from CC(=O)c1cn(CC(=O)N2C[C@](C)(F)C[C@H]2C(=O)NCc2cccc(Cl)c2F)c2ccc(O)cc12 [Example 580, (2S,4R)-1-[2-(3-Acetyl-5-hydroxy-indol-1-yl)-acetyl]-4-fluoro-4-methyl-pyrrolidine-2-carboxylic acid 3-chloro-2-fluoro-benzylamide] to CC(=O)c1cn(CC(=O)N2C[C@](C)(F)C[C@H]2C(=O)NCc2cccc(Cl)c2F)c2cc(O)ccc12 [Example 582, (2S,4R)-1-[2-(3-Acetyl-6-hydroxy-indol-1-yl)-acetyl]-4-fluoro-4-methyl-pyrrolidine-2-carboxylic acid 3-chloro-2-fluoro-benzylamide], the IC50 falls from 252 nM to 134 nM (1.9-fold).

Compared with CC(=O)c1cn(CC(=O)N2[C@@H]3C[C@@H]3C[C@H]2C(=O)NCc2cccc(Cl)c2F)c2ccc(O)cc12 [Example 581, (1R,3S,5R)-2-[2-(3-Acetyl-5-hydroxy-indol-1-yl)-acetyl]-2-aza-bicyclo[3.1.0]hexane-3-carboxylic acid 3-chloro-2-fluoro-benzylamide], CC(=O)c1cn(CC(=O)N2[C@@H]3C[C@@H]3C[C@H]2C(=O)NCc2cccc(Cl)c2F)c2cc(O)ccc12 [Example 584, (1R,3S,5R)-2-[2-(3-Acetyl-6-hydroxy-indol-1-yl)-acetyl]-2-aza-bicyclo[3.1.0]hexane-3-carboxylic acid 3-chloro-2-fluoro-benzylamide] is 1.6-fold lower in IC50: 60 nM for the first, 38 nM for the second. The second is the more potent here.

First: NC(=O)c1cn(CC(=O)N2C[C@H](F)C[C@H]2C(=O)NCc2cccc(Cl)c2F)c2cc(OCc3nn[nH]n3)ccc12 [Example 585, 1-{2-[(2S,4R)-2-(3-Chloro-2-fluoro-benzylcarbamoyl)-4-fluoro-pyrrolidin-1-yl]-2-oxo-ethyl}-6-(1H-tetrazol-5-ylmethoxy)-1H-indole-3-carboxylic acid amide]
Second: CC(=O)c1cn(CC(=O)N2C[C@H](F)C[C@H]2C(=O)NCc2cccc(Cl)c2F)c2cc(OCc3nn[nH]n3)ccc12 [Example 586, (2S,4R)-1-{2-[3-Acetyl-6-(1H-tetrazol-5-ylmethoxy)-indol-1-yl]-acetyl}-4-fluoro-pyrrolidine-2-carboxylic acid 3-chloro-2-fluoro-benzylamide]
The IC50 of the first is 7.8-fold lower: 17 nM for the first, 132 nM for the second.

First: CC(=O)c1cn(CC(=O)N2[C@@H]3C[C@@H]3C[C@H]2C(=O)NCc2cccc(Cl)c2F)c2cc(OCc3nn[nH]n3)ccc12 [Example 587, (1R,3S,5R)-2-{2-[3-Acetyl-6-(1H-tetrazol-5-ylmethoxy)-indol-1-yl]-acetyl}-2-aza-bicyclo[3.1.0]hexane-3-carboxylic acid 3-chloro-2-fluoro-benzylamide]
Second: CC(=O)c1cn(CC(=O)N2C[C@H](F)C[C@H]2C(=O)NCc2cccc(Cl)c2F)c2ccc(OCc3ncccn3)cc12 [Example 590, (2S,4R)-1-{2-[3-Acetyl-5-(pyrimidin-2-ylmethoxy)-indol-1-yl]-acetyl}-4-fluoro-pyrrolidine-2-carboxylic acid 3-chloro-2-fluoro-benzylamide]
The IC50 of the first is 7.9-fold higher: 79 nM for the first, 10 nM for the second.

Going from CC(=O)c1cn(CC(=O)N2C[C@H](F)C[C@H]2C(=O)NCc2cccc(Cl)c2F)c2ccc(OCc3ccccn3)cc12 [Example 589, (2S,4R)-1-{2-[3-Acetyl-5-(pyridin-2-ylmethoxy)-indol-1-yl]-acetyl}-4-fluoro-pyrrolidine-2-carboxylic acid 3-chloro-2-fluoro-benzylamide] to COCCOc1ccc2c(C(N)=O)cn(CC(=O)N3C[C@H](F)C[C@H]3C(=O)NCc3cccc(Cl)c3F)c2c1 [Example 591, 1-{2-[(2S,4R)-2-(3-Chloro-2-fluoro-benzylcarbamoyl)-4-fluoro-pyrrolidin-1-yl]-2-oxo-ethyl}-6-(2-methoxy-ethoxy)-1H-indole-3-carboxylic acid amide], the IC50 falls from 237 nM to 109 nM (2.2-fold). The second is the more potent here.

— US9085555B2, “Complement pathway modulators and uses thereof” (priority 2011, dated 2015)
